According to patent publication US5585367A (priority 1990, dated 1996):
Converted amounts (≈) assume the structure as drawn. “And” between values parts separate entries of the source, which are not always exact repeats. Identical values can stand only once. Like-named read-outs stand apart in the source and are kept apart here.

Key:
[1] = test system: genes "GAG", "LTR" and "ENV" of the HIV-1 provirus; test: Integration of viral genome into chromosomic DNA of Supt-1 cells (PCR); type: cell-based; details: 35 μgr/ml; virus incubated for 15 minutes
Method: By means of a genetic amplification through a thermostable polymerase, the presence of genes "GAG", "LTR" and "ENV" of the HIV-1 provirus is evidenced. This method is called P.C.R. Polymerase chain Reaction) (Chin-Yih Ou et al., Sciences 239, 295-297, 1988).
Said method is applied for detecting HIV-1 provirus in the genome of Supt-1 cells inoculated with HIV-1 virus incubated with […] (dilution 1/100), as described in Example 8
Amplified oligonucleotides, UV visible by means of ethidium bromide appear only in the tubes corresponding to an inoculation with HIV-1 viruses which were not treated with the active substance.
One proceeds as in Example 11(c). The search of genes "GAG", "LTR" and "ENV" has been made in cellular cultures inoculated with a virus incubated for 15 minutes with the active substance. This search is appeared as being negative, and thus it can be concluded that 1.1'-azobisformamide at the dosage of 35 μgr/ml protects the cells against infection by HIV-1.
Examples 10c and 11c disclose a more accurate method than the ELISA test for examining whether the inoculated cells contain HIV-1 at the end of the assay, i.e., the PCR-Method.

HIV-1 strain IIIB /LAI = test: Inhibition of HIV-1 replication in acutely infected PBLs (p24 ELISA); type: cell-based; details: for Protection: "Toxic" means that the cells are destroyed
Method: A new assay was conducted by the AIDS laboratory of the REGA Institute for Medical Research of the Katholieke Universiteit of Leuven.
1,1'-azobisformamide was purchased from Riedel de Haen and stored in a refrigerator (4°-8° C.) under light-protected conditions. Dilutions were prepared in order to obtain concentrations of 0.4 μg/ml, 2 μg/ml, 10 μg/ml, 50 μg/ml and 250 μg/ml.
Peripheral Blood Lymphocytes (PBLs) were freshly collected from a single donor. PBLs were activated by phytohemagglutinin at 2 μg/ml during 3 days, and then cultured in the presence of IL-2 for 1 week.
HIV-1 strain IIIB /LAI was provided by R. C. Gallo (Popovic M. et al, Science 1984, 224:497-500). Stocks were obtained from the culture supernatants of HIV-1 infected cell lines (HUT 78/IIIB /LAI).
The inhibitory effects of 1,1'-azobisformamide on the replication of strain IIIB /LAI in PBLs were monitored by the detection of HIV-1 p24 core antigens. PBLs were incubated with an excess of strain IIIB /LAI at 37° C. for 60 min. All cells were washed once with RPMI 1640 medium. Thereafter cells were plated at 1×10^6 cells per ml in the presence of various concentrations of the test compound. Seven days after plating PBLs, p24 antigens were detected by enzyme-linked immunosorbent assay (ELISA) (HIV-1 p24 Core Profile ELISA from Du Pont).
This method comprises measuring the concentration of the viral antigen p24 in the supernatant, i.e., the concentration of free viruses produced by replication of the viruses present in the infected cells. This measure is expressed as a measure of protection (see Table I below), where [formula]

[2] = test system: Vesicular Stomatitis Virus (VSV); test: microbe, parasite or virus in culture; type: cell-based; design: TCID 50: unit not given here; details: for log reduction at 50 µg/mL / log reduction at 100 µg/mL / log reduction at 150 µg/mL / log reduction at 250 µg/mL: Vesicular stomatitis virus, Vero
HIV-2 ROD = test: Inhibition of HIV replication in MT4 cells; type: cell-based; details: 0.4 μgr/ml to 250.0 μgr/ml
HIV = test: Inhibition of HIV replication, summary over strains and cells; type: cell-based, HIV-1 and HIV-2; details: Human immunodeficiency virus 1, p24, 7 to 8 days after infection
[3] = biological target: T1, HIV-1 reverse transcriptase (RT) (Human immunodeficiency virus type 1 BH10, UniProt P03366); test: Acellular in-vitro inhibition of reverse transcriptase (polyrC-oligodG template-primer-complex); type: biochemical
T1 construct: mature RT from Gag-Pol polyprotein (pr160Gag-Pol)
Method: ADA in a liquid medium was tested in an acellular in-vitro system for any inhibitory effect on HIV-1 reverse transcriptase (RT) using the polyrC-oligodG template-primer-complex. […] From concentrations of 60 μgr/ml upward, there is a 50% inhibition of RT. […] Therefore, ADA inhibits HIV replication with an as yet unknown but original mode of action.

pepsin = test: Inhibition of pepsin; type: biochemical
CD4 lymphocyte = test: Treatment of one patient with stage IV AIDS

For `NC(=O)N=NC(N)=O` [ADA, 1,1'-azobisformamide], the “search of genes "GAG", "LTR" and "ENV"” value [1] was “negative”, the Protection (HIV-1 strain IIIB /LAI; 50 μg/ml) was “Toxic” and the Protection (HIV-1 strain IIIB /LAI; 250 μg/ml) was “Toxic”. The inhibition at 0.4 µg/mL (HIV-1 strain IIIB /LAI; Human immunodeficiency virus 1, IIIB, 168 h, 0.4 μg/ml, read-out: Protection) was 15.2%, the inhibition at 2 µg/mL (HIV-1 strain IIIB /LAI; Human immunodeficiency virus 1, IIIB, 168 h, 2 μg/ml, read-out: Protection) was 45.8% and the inhibition at 10 µg/mL (HIV-1 strain IIIB /LAI; Human immunodeficiency virus 1, IIIB, 168 h, 10 μg/ml, read-out: Protection) was 77.6%. For the same compound, the IC50 (HIV-1 strain IIIB /LAI; Human immunodeficiency virus 1, PBLs acutely infected with IIIB /LAI) was 2.47 µg/mL (≈ 21.3 µM), the “TCID 50” value [2] was 6.90 and 6.73 and 6.55 and 4.28 and 3.75 and 3.58 and 3.93 and the log reductions [2] was > 2.0. The log reduction at 50 µg/mL ([2]; 10 min, read-out: Log Red) was 1.05, the log reduction at 100 µg/mL ([2]; 10 min, read-out: Log Red) was 1.22 and the log reduction at 150 µg/mL ([2]; 10 min, read-out: Log Red) was 1.22. For the same compound, the log reduction at 250 µg/mL ([2]; 10 min, read-out: Log Red) was 1.4, the log reduction at 50 µg/mL ([2]; 1 h, read-out: Log Red) was 1.4 and the log reduction at 100 µg/mL ([2]; 1 h, read-out: Log Red) was 1.22. It also gave a log reduction at 150 µg/mL ([2]; 1 h, read-out: Log Red) of 1.4, a log reduction at 250 µg/mL ([2]; 1 h, read-out: Log Red) of 1.4 and a log reduction at 50 µg/mL ([2]; 20 h, read-out: Log Red) of 1.75. The log reduction at 100 µg/mL ([2]; 20 h, read-out: Log Red) was 2.28, the log reduction at 150 µg/mL ([2]; 20 h, read-out: Log Red) was 2.45 and the log reduction at 250 µg/mL ([2]; 20 h, read-out: Log Red) was 2.1. For the same compound, the log reduction at 150 µg/mL ([2]; read-out: log reduction (strongest effect)) was 2.28, the “inhibition of the replication of HIV-2 (ROD)” value (HIV-2 ROD) was “inhibits the replication” and the IC50 (HIV; read-out: IC50 range) was 1.6 to 14.8 µg/mL (≈ 13.8 to 127 µM). For the same compound, the IC50 (HIV; read-out: median IC50) was 8 µg/mL (≈ 68.9 µM), the RT inhibition ([3]; at concentrations up to the IC90) was “not an RT-inhibitor” and the “inhibition of RT” value ([3]; from concentrations of 60 μgr/ml upward) was 50%. For the same compound, the inhibition of pepsin (pepsin) was “does not inhibit pepsin”, the “toxicity against VERO cells” value (VERO cells) was “No toxicity against VERO cells was observed” and the “absolute CD4 lymphocyte count” value (CD4 lymphocyte; 500 mg three times a day, 26-week period, from 77) was 144 cells/mm^3. For the same compound, the diarrhea (CD4 lymphocyte; 12 weeks after restarting ADA) was “free of diarrhea”, the weight (CD4 lymphocyte; 12 weeks after restarting ADA) was “gained considerable weight” and the “weight and diarrhea after withdrawal of ADA” value (CD4 lymphocyte; RT medication without ADA) was “lost weight and developed intractable diarrhea”. The “CD4 lymphocyte count after withdrawal of ADA” value (CD4 lymphocyte; RT medication without ADA, within two months) was “returned to baseline”, the CD4 lymphocyte count (CD4 lymphocyte; fifteen weeks after restarting ADA) was 190 cells/mm^3 and the “adverse effects that could be drug-related” value (CD4 lymphocyte; occasional increases up to 2 grams three times a day) was “No adverse effects”. The CD4 lymphocyte count (CD4 lymphocyte; restart at 1 gram three times a day, within two weeks) was 144 cells/mm^3.
